Read-outs that look alike come from different tables or passages of the source.
Assays:
clinical = conditions: both, human, in vivo, po
[1] = PubChem, cited from earlier work
[2] = Comparative urine analysis after ingesting cough syrup (LC-MS/MS, creatinine-normalized); type: in vivo, humans; conditions: 15 mL cough syrup oral; for k el / MRT / Tmax / half-life: human, in vivo; for MRT: reciprocal of kel; for Tmax: seven volunteers; for half-life: time from Cmax to half of Cmax
[3] = reported in the literature, ref numbers not given; cited from earlier work
[4] = Drug clearance study by breathing through face masks (exhaled breath, LC-MS/MS); conditions: for MRT / Tmax / half-life / k el: both, human, in vivo, po, 15 mL
[5] = both, human, in vivo, po
[6] = exhaled breath, 15 mL cough syrup oral

Structure (SMILES)	MRT (clinical) [h]	Tmax (clinical) [h]	k el (clinical) [s⁻¹]	pKa [1]	pKa ([1]; listed as Clp)	detection window [2] [h]	k el [2] [s⁻¹]	MRT [2] [h]	Tmax [2] [h]	half-life [2] [h]	plasma t1/2 [3]	MRT [4] [h]	Tmax [4] [h]	half-life [4] [h]	k el [4] [s⁻¹]	detection window [4, 6] [h]	Cmax in exhaled breath [4, 6] [ng/m^3]	detection window [5] [h]	half-life (clinical) [h]
CN(C)CCC(c1ccc(Cl)cc1)c1ccccn1 (stereo not shown) [Chlorpheniramine]	34.2 ± 4.6	13.1 ± 5	8.33e-06	9.5^36	~9.5														
COc1ccc2c3c1O[C@H]1[C@@H](O)C=C[C@H]4[C@@H](C2)N(C)CC[C@@]341 [Codeine]						68.2 ± 8.3	8.33e-05	4.6 ± 2.1	2.1 ± 1.3	3.3 ± 0.7	2 to 3 h	3.9 ± 0.8	1.9 ± 1	2.9 ± 0.8	8.33e-05	61.3 ± 12.7			
CN[C@@H](C)[C@H](O)c1ccccc1 [Ephedrine]						79.9 ± 11.4	2.78e-05	10.4 ± 3.3	2.7 ± 1.8	6.2 ± 0.6	approximately 6 h	14.5 ± 4.1	6.9 ± 1.1	10 ± 2.8	2.78e-05	92.6 ± 9.1	10.8 ± 1.6		
COc1ccccc1OCC(O)CO (stereo not shown) [Guaifenesin]	4.8 ± 4.2	0.9 ± 0.2	0.000111								~1 h							65.1 ± 18.1	2.1 ± 0.9

Source: publication PMC12096346, “Disposable Face Masks for Noninvasive Drug Detection: A Proof-of-Concept Study with Cough Syrup Constituents” (Analytical Chemistry, 2025)
